Experimental data reported in ChEMBL document CHEMBL5038606 (J Med Chem, 2022).
Converted amounts (≈) assume the structure as drawn.

Tests used:
Coagulation factor XI = Coagulation factor XI (Homo sapiens, UniProt P03951); experiment: Binding affinity to human coagulation factor 11a using L-Pyroglutamyl-L-prolyl-L-arginine p-Nitroaniline as substrate assessed as inhibition constant measured upto 120 mins by spectrophotometric analysis
Plasma = experiment: Anticoagulant activity in human plasma assessed as activated partial thromboplastin time; type: functional
[1] = Metabolic stability in human liver microsomes assessed as half life; type: ADME, Microsome
[2] = Metabolic stability in Sprague-Dawley rat liver microsomes assessed as half life; type: ADME, Microsome; parameters: dose or concentration left out as unconfirmed
[3] = Protein binding in Sprague-Dawley rat plasma assessed as bound fraction; type: ADME, cell-free; parameters: dose or concentration left out as unconfirmed
[4] = Clearance in Sprague-Dawley rat at 1.06 mg/kg, po or 0.53 mg/kg, iv; type: ADME, organism-based; details: in vivo
[5] = Half life in Sprague-Dawley rat at 1.06 mg/kg, po or 0.53 mg/kg, iv; type: ADME, organism-based; details: in vivo
[6] = Volume of distribution at steady state in Sprague-Dawley rat at 1.06 mg/kg, po or 0.53 mg/kg, iv; type: ADME, organism-based; details: in vivo, read-out: Vdss
[7] = AUC in Sprague-Dawley rat at 1.06 mg/kg, po; type: ADME, organism-based; parameters: dose 1.06 mg/kg; details: in vivo
[8] = Oral bioavailability in Sprague-Dawley rat at 1.06 mg/kg; type: ADME, organism-based; details: in vivo
[9] = Fraction unbound in human plasma; type: ADME, cell-free
[10] = Aqueous solubility of the compound at pH 6.5; type: physicochemical; details: aqueous medium
[11] = Aqueous solubility of the compound at pH 1.0; type: physicochemical; details: aqueous medium
[12] = Oral bioavailability in Sprague-Dawley rat at 1.10 mg/kg; type: ADME, organism-based; details: in vivo, dose 1.1 mg/kg
[13] = Apparent permeability across apical to basolateral side in human Caco2 cells; type: ADME, cell-based; details: Caco-2, read-out: permeability
[14] = Clearance in Sprague-Dawley rat at 1.10 mg/kg, po or 0.55 mg/kg, iv; type: ADME, organism-based; details: in vivo, dose 1.1 mg/kg
[15] = Half life in Sprague-Dawley rat at 1.10 mg/kg, po or 0.55 mg/kg, iv; type: ADME, organism-based; details: in vivo, dose 1.1 mg/kg
[16] = Volume of distribution at steady state in Sprague-Dawley rat at 1.10 mg/kg, po or 0.55 mg/kg, iv; type: ADME, organism-based; details: in vivo, dose 1.1 mg/kg, read-out: Vdss
[17] = AUC in Sprague-Dawley rat at 1.10 mg/kg, po; type: ADME, organism-based; parameters: dose 1.1 mg/kg; details: in vivo, 1.1 mg/kg

Sequence of Coagulation factor XI (P03951 19-387 limits assumed): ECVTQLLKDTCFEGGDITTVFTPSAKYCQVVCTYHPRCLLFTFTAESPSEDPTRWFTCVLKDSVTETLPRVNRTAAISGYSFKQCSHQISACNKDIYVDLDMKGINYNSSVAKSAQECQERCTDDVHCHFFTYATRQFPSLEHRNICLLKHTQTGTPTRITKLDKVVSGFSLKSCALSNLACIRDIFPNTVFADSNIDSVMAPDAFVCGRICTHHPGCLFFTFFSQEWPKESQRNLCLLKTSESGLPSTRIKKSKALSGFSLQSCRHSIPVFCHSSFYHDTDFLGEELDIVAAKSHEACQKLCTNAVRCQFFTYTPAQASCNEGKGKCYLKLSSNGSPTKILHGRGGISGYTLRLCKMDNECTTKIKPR
Sequence of Coagulation factor XI (P03951 388-625 limits assumed): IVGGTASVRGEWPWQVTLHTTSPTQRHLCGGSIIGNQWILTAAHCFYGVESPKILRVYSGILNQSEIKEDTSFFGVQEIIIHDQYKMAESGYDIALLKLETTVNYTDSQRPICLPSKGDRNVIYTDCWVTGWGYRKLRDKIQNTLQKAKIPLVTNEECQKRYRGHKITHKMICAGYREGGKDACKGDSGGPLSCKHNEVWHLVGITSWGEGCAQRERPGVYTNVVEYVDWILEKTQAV

**Q.** For C[C@@H]1CCC[C@H](N2CCC(c3cc(Cl)ccc3-n3ccnc3)=CC2=O)c2cc(ccn2)-c2c(cnn2C)NC1=O, which Ki (Coagulation factor XI) is on record?
**A.** 2.7 nM

**Q.** What about the EC1.5 (Plasma) of the same compound?
**A.** 0.6 µM

**Q.** For C[C@@H]1CCC[C@H](N2CCC(c3cc(Cl)ccc3-n3cccn3)=CC2=O)c2cc(ccn2)-c2c(cnn2C)NC1=O, which Ki (Coagulation factor XI) is on record?
**A.** 11 nM

**Q.** What about the EC1.5 (Plasma) of the same compound?
**A.** 8.9 µM

**Q.** Which EC1.5 (Plasma) does the source give for C[C@@H]1CCC[C@H](N2CCC(c3cc(Cl)ccc3-n3ccnn3)=CC2=O)c2cc(ccn2)-c2c(cnn2C)NC1=O here?
**A.** 0.36 µM

**Q.** And the half-life [1]?
**A.** 1.13 h

**Q.** What does the source list for C[C@@H]1CCC[C@H](N2CCC(c3cc(Cl)ccc3-n3cc(Cl)nn3)=CC2=O)c2cc(ccn2)-c2c(cnn2C(F)F)NC1=O?
**A.** Ki (Coagulation factor XI): 0.07 nM; EC1.5 (Plasma): 0.39 µM; half-life [1]: > 2 h; half-life [2]: > 2 h; fraction unbound [3]: 0.06; clearance [4]: 17 mL/min/kg; half-life [5]: 1.2 h; Vd [6]: 1.4 L/kg; AUC [7]: 0.3 µM·h; bioavailability [8]: 18%

**Q.** With C[C@@H]1CCC[C@H](N2CCC(c3c(F)ccc(Cl)c3F)=CC2=O)c2cc(ccn2)-c2c(cnn2C)NC1=O as the compound, how does the fraction unbound [9] read?
**A.** 0.007

**Q.** And the solubility [10]?
**A.** 0.15 µg/mL (≈ 0.285 µM)

**Q.** What about the solubility [11] of the same compound?
**A.** 3 µg/mL (≈ 5.7 µM)

**Q.** Which bioavailability [12] does the source give for C[C@@H]1CCC[C@H](N2CCC(c3cc(Cl)ccc3-n3ccnn3)=CC2=O)c2cc(ccn2)-c2c(cnn2C(F)F)NC1=O here?
**A.** 7%

**Q.** What about the EC1.5 (Plasma) of the same compound?
**A.** 0.45 µM

**Q.** What about the half-life [1] of the same compound?
**A.** 1.67 h

**Q.** And the Papp A→B [13]?
**A.** < 1.5 ×10⁻⁶ cm/s

**Q.** And the clearance [14]?
**A.** 42 mL/min/kg

**Q.** And the half-life [15]?
**A.** 0.5 h

**Q.** What about the Vd [16] of the same compound?
**A.** 1.2 L/kg

**Q.** And the half-life [2]?
**A.** > 2 h

**Q.** And the fraction unbound [3]?
**A.** 0.249

**Q.** What about the AUC [17] of the same compound?
**A.** 0.068 µM·h

**Q.** Which Ki (Coagulation factor XI) does the source give for C[C@@H]1CCC[C@H](N2CCC(c3c(F)ccc(Cl)c3F)=CC2=O)c2cc(ccn2)-c2[nH]ncc2NC1=O here?
**A.** 548 nM

**Q.** Which EC1.5 (Plasma) does the source give for C[C@@H]1CCC[C@H](n2cnc(-c3cc(Cl)ccc3-n3cc(Cl)nn3)cc2=O)c2cc(ccn2)-c2c(cnn2C)NC1=O here?
**A.** 0.3 µM

**Q.** What about the half-life [1] of the same compound?
**A.** 1.93 h
